The text below walks through data of ChEMBL document CHEMBL5506008, “Synthesis and biological evaluation of 1-phenyl-tetrahydro-β-carboline-based first dual PRMT5/EGFR inhibitors as potential anticancer agents” (Eur J Med Chem, 2024).

The structures appear in SMILES notation.

The target in test [1] is Epidermal growth factor receptor (Homo sapiens, UniProt P00533). Put plainly: Inhibition of wild type GST-tagged EGFR catalytic domain (unknown origin) expressed in insect cells using poly(Glu-Tyr) as substrate incubated for 6 mins by ELISA. Details: species or system Insect cell.
Test [2] addresses Protein arginine N-methyltransferase 5 (Homo sapiens, UniProt O14744). Put plainly: Inhibition of PRMT5 (unknown origin) by radiometric-based scintillation proximity assay.

Epidermal growth factor receptor, sequence (P00533 whole entry, the tested form may be a part): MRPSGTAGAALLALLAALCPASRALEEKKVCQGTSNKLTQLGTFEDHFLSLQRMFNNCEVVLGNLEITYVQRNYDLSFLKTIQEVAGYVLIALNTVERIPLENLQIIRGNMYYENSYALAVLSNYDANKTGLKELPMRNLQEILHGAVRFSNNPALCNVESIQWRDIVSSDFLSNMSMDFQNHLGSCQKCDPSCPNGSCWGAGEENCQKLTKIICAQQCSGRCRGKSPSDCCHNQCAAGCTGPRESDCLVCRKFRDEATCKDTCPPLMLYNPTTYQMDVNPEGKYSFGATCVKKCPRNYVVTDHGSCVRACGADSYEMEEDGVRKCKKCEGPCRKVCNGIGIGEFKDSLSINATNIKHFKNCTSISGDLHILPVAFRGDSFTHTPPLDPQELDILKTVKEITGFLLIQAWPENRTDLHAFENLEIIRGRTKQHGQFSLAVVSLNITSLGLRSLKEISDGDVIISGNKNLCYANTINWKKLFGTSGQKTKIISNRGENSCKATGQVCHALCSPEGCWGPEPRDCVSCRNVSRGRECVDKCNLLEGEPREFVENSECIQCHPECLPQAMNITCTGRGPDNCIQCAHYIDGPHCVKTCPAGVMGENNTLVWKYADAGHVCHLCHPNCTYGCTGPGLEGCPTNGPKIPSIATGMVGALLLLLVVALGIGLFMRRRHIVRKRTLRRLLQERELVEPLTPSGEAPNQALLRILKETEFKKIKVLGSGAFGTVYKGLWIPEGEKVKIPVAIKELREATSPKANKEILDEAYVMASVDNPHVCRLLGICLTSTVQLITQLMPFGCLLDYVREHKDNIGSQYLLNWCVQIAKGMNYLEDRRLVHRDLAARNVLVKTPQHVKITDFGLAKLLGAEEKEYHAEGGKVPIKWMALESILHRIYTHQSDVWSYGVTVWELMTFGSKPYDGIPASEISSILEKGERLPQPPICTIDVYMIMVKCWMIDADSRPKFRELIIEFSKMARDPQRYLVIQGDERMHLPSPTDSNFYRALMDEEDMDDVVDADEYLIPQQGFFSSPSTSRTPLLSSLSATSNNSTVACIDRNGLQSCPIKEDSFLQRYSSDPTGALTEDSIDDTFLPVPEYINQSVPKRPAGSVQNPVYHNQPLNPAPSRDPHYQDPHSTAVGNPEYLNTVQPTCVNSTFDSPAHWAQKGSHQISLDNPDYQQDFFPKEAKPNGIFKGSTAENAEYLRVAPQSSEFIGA
Protein arginine N-methyltransferase 5, sequence (O14744 whole entry): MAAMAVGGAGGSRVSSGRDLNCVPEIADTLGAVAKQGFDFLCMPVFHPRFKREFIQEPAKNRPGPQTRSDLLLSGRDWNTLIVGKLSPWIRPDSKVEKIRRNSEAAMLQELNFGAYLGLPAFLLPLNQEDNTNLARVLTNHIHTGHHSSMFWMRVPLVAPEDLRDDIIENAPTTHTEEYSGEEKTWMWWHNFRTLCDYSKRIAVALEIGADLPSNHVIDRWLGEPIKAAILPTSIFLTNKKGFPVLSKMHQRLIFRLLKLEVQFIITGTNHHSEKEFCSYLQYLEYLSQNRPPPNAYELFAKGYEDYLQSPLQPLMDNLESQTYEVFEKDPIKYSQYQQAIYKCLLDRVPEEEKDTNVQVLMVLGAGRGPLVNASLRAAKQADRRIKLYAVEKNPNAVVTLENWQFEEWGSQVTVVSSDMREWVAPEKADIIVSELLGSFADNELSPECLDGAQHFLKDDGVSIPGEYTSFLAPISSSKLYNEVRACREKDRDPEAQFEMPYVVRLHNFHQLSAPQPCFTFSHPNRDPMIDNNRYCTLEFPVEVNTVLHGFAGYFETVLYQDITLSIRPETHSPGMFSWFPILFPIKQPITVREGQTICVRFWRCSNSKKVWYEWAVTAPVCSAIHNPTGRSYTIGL

In the case of `O=C(Nc1ccc(C2NCCc3c2[nH]c2ccccc32)cc1)c1cccc(C(F)(F)F)c1` (configuration not stated), the IC50 (in general, the concentration that gives 50% inhibition) in test [1] amounted to 73.7 µM; in test [2], 87.3 µM.

`CN1CCc2c([nH]c3ccccc23)C1c1ccc(OC(=O)c2ccccc2)cc1` (configuration not stated): the IC50 in test [1] and in test [2] was > 100 µM throughout.

Regarding `COC(=O)c1ccc(COc2ccc(C3NCCc4c3[nH]c3ccccc43)cc2OC)c(F)c1` (configuration not stated), the IC50 in test [1] was 55.6 µM; in test [2], > 100 µM.

For the molecule `O=C(Nc1ccc(C2NCCc3c2[nH]c2ccccc32)cc1)c1ccc(C(F)(F)F)cc1` (configuration not stated), the IC50 in test [2] was > 100 µM.

For `COc1cc(C2NCCc3c2[nH]c2ccccc32)ccc1OCc1ccc(F)c(C#N)c1` (configuration not stated), the IC50 in test [1] and in test [2] was > 100 µM each time.

Take `O=C(Nc1ccc(C2NCCc3c2[nH]c2ccccc32)cc1)c1ccccc1` (configuration not stated): the IC50 in test [1] was 56.3 µM; in test [2], 74.5 µM.

As for `COc1cc(C2NCCc3c2[nH]c2ccccc32)ccc1OCc1ccc(B2OC(C)(C)C(C)(C)O2)cc1` (configuration not stated), the IC50 is 85.8 µM in test [1] and > 100 µM in test [2].

Turning to `O=C(Nc1ccc(C2NCCc3c2[nH]c2ccccc32)cc1)c1ccc([N+](=O)[O-])cc1` (configuration not stated), the IC50 in test [2] is > 100 µM.

On to `COc1cc(C2NCCc3c2[nH]c2ccccc32)ccc1OCc1ccccc1F` (configuration not stated), for which the IC50 in test [1] is > 100 µM; in test [2], 55.7 µM.

As for `COc1cc(C2NCCc3c2[nH]c2ccccc32)ccc1OCc1ccc(F)cc1Cl` (configuration not stated), the results for the IC50 in test [1] and in test [2] were > 100 µM and 76.4 µM, respectively.

For the molecule `COC(=O)c1ccc(C(=O)Nc2ccc(C3NCCc4c3[nH]c3ccccc43)cc2)cc1` (configuration not stated), the IC50 in test [2] was > 100 µM.

Regarding `COc1cc(C2c3[nH]c4ccccc4c3CCN2C)ccc1OC(=O)c1ccccc1` (configuration not stated), the half-maximal inhibitory concentration (IC50) was 87.6 µM in test [1] and > 100 µM in test [2].

Take `Cc1cccc(C(=O)Nc2ccc(C3NCCc4c3[nH]c3ccccc43)cc2)c1` (configuration not stated): the IC50 in test [2] is > 100 µM.

For `O=C(Nc1ccc(C2NCCc3c2[nH]c2ccccc32)cc1)c1ccc(F)c(C(F)(F)F)c1` (configuration not stated), the IC50 is > 100 µM in test [1] and 66.4 µM in test [2].

Consider `COc1cc(C2NCCc3c2[nH]c2ccccc32)ccc1OCc1ccccc1` (configuration not stated), for which the IC50 in test [1] was > 100 µM; in test [2] it was 32.4 µM.

As for `O=C(Nc1ccc(C2NCCc3c2[nH]c2ccccc32)cc1)c1ccc(Br)cc1` (configuration not stated), the IC50 in test [2] is > 100 µM.

In the case of `COc1cc(COc2ccc(C3NCCc4c3[nH]c3ccccc43)cc2OC)ccc1F` (configuration not stated), the IC50 in test [1] is > 100 µM; in test [2], 23.2 µM.

Regarding `O=C(Nc1ccc(C2NCCc3c2[nH]c2ccccc32)cc1)c1ccc(Cl)cc1` (configuration not stated), the IC50 in test [2] is > 100 µM.

`CN1CCc2c([nH]c3ccccc23)C1c1ccc(NC(=O)c2cccc(C(F)(F)F)c2)cc1` (configuration not stated): the IC50 in test [1] and in test [2] was > 100 µM in each case.

Regarding `O=C(Nc1ccc(C2NCCc3c2[nH]c2ccccc32)cc1)c1ccccc1F` (configuration not stated), the IC50 in test [2] is > 100 µM.

`CN1CCc2c([nH]c3ccccc23)C1c1ccc(NC(=O)c2ccc(F)c(C(F)(F)F)c2)cc1` (configuration not stated): the IC50 in test [1] and in test [2] was > 100 µM in each case.

`Cc1ccccc1C(=O)Nc1ccc(C2NCCc3c2[nH]c2ccccc32)cc1` (configuration not stated): in test [2], the IC50 is > 100 µM.

For the molecule `CN1CCc2c([nH]c3ccccc23)C1c1ccc(NC(=O)c2cccc(F)c2)cc1` (configuration not stated), the IC50 in test [1] and in test [2] was > 100 µM each time.

`O=C(Nc1ccc(C2NCCc3c2[nH]c2ccccc32)cc1)c1cccc([N+](=O)[O-])c1` (configuration not stated): the IC50 was found to be 60.3 µM in test [1] and 78.9 µM in test [2].

On to `COc1cc(C2NCCc3c2[nH]c2ccccc32)ccc1OCc1ccc(F)cc1` (configuration not stated), for which the IC50 in test [1] and in test [2] was > 100 µM throughout.

Regarding `CN1CCc2c([nH]c3ccccc23)C1c1ccc(NC(=O)c2ccccc2)cc1` (configuration not stated), the IC50 in test [1] and in test [2] was > 100 µM each time.

As to `O=C(Nc1ccc(C2NCCc3c2[nH]c2ccccc32)cc1)c1cc(C(F)(F)F)cc(C(F)(F)F)c1` (configuration not stated), in test [2], the half-inhibitory concentration (IC50) was > 100 µM.

`O=C(Nc1ccc(C2NCCc3c2[nH]c2ccccc32)cc1)c1ccc(F)cc1` (configuration not stated): in test [2], the IC50 is > 100 µM.

As to `O=C(Nc1ccc(C2NCCc3c2[nH]c2ccccc32)cc1)c1cccc(Cl)c1` (configuration not stated), the midpoint of inhibition in test [2], the IC50, lay at 46.3 µM.
